For one assay, the target named is T1, dopamine D-2 receptor (Rattus norvegicus, UniProt P61169).
T1 construct: from tissue; host or cells: homogenized limbic brain tissue
In words: Dopamine D-2 receptor binding ([3H]-spiroperidol, homogenized limbic brain tissue). As to the method:
High affinity for the dopamine D-2 receptor was established by the standard experimental test procedure of Fields et al., Brain Res., 136, 578 (1977) and Yamamura et al., eds. Neutrotransmitter Receptor Binding, Raven Press, N.Y. (1978) wherein homogenized limbic brain tissue is incubated with ^3 H-spiroperidol and various concentrations of test compound, filtered and washed and shaken with Hydrofluor scintillation cocktail (National Diagnostics) and counted in a Packard 460 CD scintillation counter.

Assay [1] deals with T2, 5-HT1A serotonin receptor (Rattus norvegicus, UniProt P19327).
T2 sequence (P19327 1-422): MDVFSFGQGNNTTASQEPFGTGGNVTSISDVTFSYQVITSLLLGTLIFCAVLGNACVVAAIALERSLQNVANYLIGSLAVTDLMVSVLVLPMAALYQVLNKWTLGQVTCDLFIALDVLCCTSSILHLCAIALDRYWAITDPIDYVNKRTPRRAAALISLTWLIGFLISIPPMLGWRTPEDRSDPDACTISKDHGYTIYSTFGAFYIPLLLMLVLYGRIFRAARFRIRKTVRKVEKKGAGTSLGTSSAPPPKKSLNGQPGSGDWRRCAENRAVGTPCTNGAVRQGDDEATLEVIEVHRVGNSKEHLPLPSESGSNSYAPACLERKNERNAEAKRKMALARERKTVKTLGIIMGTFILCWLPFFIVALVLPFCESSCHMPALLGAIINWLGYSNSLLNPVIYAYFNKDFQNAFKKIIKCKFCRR
In words: Serotonin 5-HT1A receptor binding (displacement of [3H]-8-OHDPAT). Set-up: from tissue. To be noted: [3H]-8-OHDPAT displacement. From the text:
High affinity for the serotonin 5-HT1A receptor was established by testing the claimed compounds ability to displace [^3 H]-8-OHDPAT (dipropylaminotetralin) from the 5-HT1A serotonin receptor following the procedure of Hall et al., J. Neurochem. 44, 1685 (1985). […] The anxiolytic activity of buspirone is believed to be, at least partially, due to its 5-HT1A receptor affinity (Vander Maclen et al., Eur. J. Pharmacol. 1986, 129 (1-2), 133-130.
(In general: Loss of bound radioactivity is the signal in a displacement assay; it reports binding, not function.)

The target of assay [2] is T2, 5-HT1A serotonin receptor. As to conditions: standard for anxiolytic activity; cited from earlier work.

T1 sequence (P61169 whole entry): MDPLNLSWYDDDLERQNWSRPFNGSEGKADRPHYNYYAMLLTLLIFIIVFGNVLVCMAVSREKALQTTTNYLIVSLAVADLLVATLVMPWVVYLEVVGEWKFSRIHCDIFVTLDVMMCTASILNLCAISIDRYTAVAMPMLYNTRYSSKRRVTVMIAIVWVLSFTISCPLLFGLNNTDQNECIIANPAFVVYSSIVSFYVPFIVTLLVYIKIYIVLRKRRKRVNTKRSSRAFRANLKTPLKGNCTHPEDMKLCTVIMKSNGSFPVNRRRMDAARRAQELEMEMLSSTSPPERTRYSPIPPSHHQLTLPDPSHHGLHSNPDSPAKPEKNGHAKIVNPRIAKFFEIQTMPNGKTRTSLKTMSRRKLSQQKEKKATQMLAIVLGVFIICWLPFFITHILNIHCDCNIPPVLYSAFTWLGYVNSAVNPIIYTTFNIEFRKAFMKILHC

Regarding `c1cnc(N2CCN(CCCOc3ccc4c(c3)CCC4)CC2)nc1` [Example 1], the inhibition (usually the change of the read-out against control, counted positive when it falls) at 1 µM on dopamine D-2 receptor turned out to be 85%; in assay [1] it was 91%.
Compound `Fc1ccc(C(c2ccc(F)cc2)N2CCN(CCCOc3ccc4c(c3)CCC4)CC2)cc1` [Example 2, 1-[4-[3-[(2,3-Dihydro-1H-indan-5-yl)oxy]propyl]-1-piperazinyl]bis(4-fluorophenyl)methane] showed an inhibition at 1 µM in assay [1] of 43%.
Regarding `Clc1cncc(N2CCN(CCCOc3ccc4c(c3)CCC4)CC2)n1` [Example 3], the inhibition at 1 µM worked out at 82% at dopamine D-2 receptor and 48% in assay [1].
For `c1ccc2c(c1)OCC(CNCCCCOc1ccc3c(c1)CCC3)O2` (stereo not drawn) [Example 4, N-[4-[(2,3-Dihydro-1H-indan-5-yl)oxy]butyl]-2,3-dihydro-1,4-benzodioxan-2-methanamine], the inhibition at 1 µM on dopamine D-2 receptor was determined as 97%; in assay [1] it was 92%.
Consider `c1ccc2c(c1)OCC(CNCCOc1ccc3c(c1)CCC3)O2` (stereo not drawn) [Example 5, N-[2-[(2,3-Dihydro-1H-indan-5-yl)oxy]ethyl]-2,3-dihydro-1,4-benzodioxan-2-methanamine], for which the inhibition at 1 µM is 100% on dopamine D-2 receptor and 76% in assay [1].
In the same order, the values of `c1ccc2c(c1)OCC(CNCCCOc1ccc3c(c1)CCC3)O2` (stereo not drawn) [Example 6, N-[3-[(2,3-Dihydro-1H-indan-5-yl)oxy]propyl]-2,3-dihydro-1,4-benzodioxan-2-methanamine] are 95% and 99%.
As to `O=C1CC2(CCCC2)CC(=O)N1CCCCN1CCN(c2ncccn2)CC1` [buspirone], the “affinity for the 5-HT1A serotonin receptor subtype (in words)” value in assay [2] is listed as “potent affinity”.

Values taken from US5036070A, “Polycyclic phenalkyl amines as psychotropic agents” (American Home Products Corporation, priority 1990, dated 1991).
